Source: US5846562A, “Oral composition of fumagillol derivative” (Takeda Chemical Industries, Ltd., priority 1996, dated 1998)
Read-outs that look alike come from different tables or passages of the source.

Experiments:
Colon 26 cancer cells [1] = test: Colon 26 tumor growth inhibition in tumor-bearing mice, oral; format: in vivo, female BALB/c mice; conditions: solution in Miglyol 812
Description: (§1) Tumor-bearing mice were provided by transplanting 1×10^5 Colon 26 cancer cells/animal in the flank of female 10-week-old BALB/c mice (Charles River Japan). […] On day 21, the tumor mass at the transplantation site was excised and weighed, and the tumor weight ratio relative to the untreated control group (T/C) was calculated. In addition, the tumor colonies metastasized to the lungs were counted and the median value in each group was compared with that in the untreated control group (T/C).

[2] = rat, in vivo, po, 100 mg/kg
Source text: Blood was collected from the caudal vein periodicaly to determine the plasma concentration of metabolite.

Colon 26 cancer cells [3] = test: Lung metastasis (tumor colonies) in Colon 26 tumor-bearing mice, oral; format: in vivo, female BALB/c mice; conditions: for T/C (median number of tumor colonies metastasized to the lungs vs untreated control): oral once daily day 7 to day 20, sample solution in Miglyol 812, day 21
Description: as §1

[4] = Plasma concentration of metabolite after oral compound A with or without famotidine pretreatment; format: in vivo, SD rats; conditions: famotidine-treated group, intragastric pH elevated, vs no famotidine
Description: Famotidine (Sigma) was administered subcutaneously to SD rats fasted overnight (dose; 10 mg/kg). […] Blood was serially drawn from the caudal vein to determine the plasma concentration of metabolites.

## CO[C@@H]1[C@H](OC(=O)NC(=O)CCl)CC[C@]2(CO2)[C@H]1[C@@]1(C)O[C@@H]1CC=C(C)C [Compound A, 6-O-(N-chloroacetylcarbamoyl)fumagillol]
Colon 26 cancer cells [1]
  effect on tumor growth inhibition: potent and dose-dependent effect
[2]; 5 min
  Plasma concentration of metabolite: 15.7 ± 1.6 ng/mL
[2]; 10 min
  Plasma concentration of metabolite: 17.3 ± 4.9 ng/mL
[2]; 30 min
  Plasma concentration of metabolite: 5.8 ± 3.6 ng/mL
[2]; 60 min
  Plasma concentration of metabolite: 0 ng/mL
Colon 26 cancer cells [3]; 25 mg/kg
  T/C (median number of tumor colonies metastasized to the lungs vs untreated control): 71%
Colon 26 cancer cells [3]; 50 mg/kg
  T/C (median number of tumor colonies metastasized to the lungs vs untreated control): 52%
Colon 26 cancer cells [3]; oral, solution in Miglyol 812
  effect on tumor metastasis inhibition: potent and dose-dependent effect
[4]
  absorption: marked increase in absorption
